{"source": "patent US4472382A", "about": "“Treatment method” (Roussel Uclaf, priority 1979, dated 1984)", "key": {"[1]": {"tested_on": "testicular steroidogensis", "test": "Inhibitory activity against testicular steroidogenesis in men in good health, single intranasal administration", "type": "in vivo", "method": "The said product was administered intranasally at a dose of 500 μg in a few drops of distilled water at 8 A.M. on the third day of the test. For 2 days prior to the treatment and for 6 days after the treatment, samples of blood were taken daily at 8 A.M., 3 P.M. and 10 P.M. On the day of administration of the LH--RH agonist, blood samples were taken at 11 A.M. and 6 P.M.\nThe seric concentrations of LH and FSH were measured by radioimmuno-logic dosages with double antibodies and the antibodies for measuring LH and FSH were furnished by the National Pituitary Agency of N.I.H. in Bethesda, Md. The seric concentrations of steroids was measured by radioimmuno-logic dosages in which one ml of serum was extracted with ether and the steroids were separated on a LH-20 column before measuring with radioimmuno-logic dosages. The radioimmuno-logic dosage results were determined by a program derived from model II of Rodbard et al [Second Karolinska Symposium on Research Methods in Reproductive Endrocrinology, Diczfalusky Editor, Copenhague (1970), p. 79-103]. The statistical significance was determined by the \"multiple level test\" of Duncan-Kramer [Kramer, Biometrics, Vol. 12 (1956), p. 307]. The results are shown in the graphs on sheet 1 of the Figures filed herewith."}, "[2]": {"tested_on": "ovarian steroidogenosis", "test": "Inhibitory activity on ovarian steroidogenesis in women", "type": "in vivo", "method": "The inhibitory activity of [D Ser (Tbu)^6, des Gly NH2^10 ] LH--RH ethylamide on ovarian steroidogenosis in women was determined on 6 women aged 26 to 35 years with normal and regular menstrual cycles and without prior endocrinal or gynecological problems. The study was conducted for 6 consecutive cycles consisting of 2 pretreatment cycles, 2 treatment cycles and 2 post-treatment cycles. Two drops of a solution containing 500 μg of [D Ser (Tbu)^6, des Gly NH2^10 ] LH--RH ethylamide were deposited on each nostril at 8 A.M. and 5 P.M. of a day between the 4th and 9th day after the peak of LH-day 0. Daily blood samples were taken between 4 and 6 P.M. to measure seric levels of LH, FSH, progesterone and estradiol which were determined by radioimmuno-logictests with double antibodies. The antibodies to measure LH and FSH were furnished by the National Pituitory Agency of N.I.H. of Bethesda, Md.\nEstradiol and progesterone were measured with highly specific antibodies developed against 7-(O-carboxymethyl)-oxime of estradiol and 12-(O-carboxymethyl)-oxime of progesterone, respectively [3H] 17β-estradiol and ^125 I-progesterone-12-[O-carboxymethyl)-oxime]used as tracers. The serum was extracted with benzene and the steroids were separated with a LH-20 column before the determination. The radioimmunological results were exploited by the program derived from model II of Rodbard and Lewald as in Example 1 and the statistical significance was measured by the multiple level test of Ducan-Kramer of Example 1. The results are shown in the graphs of sheets 3 to 5 of the Figures."}, "[3]": {"tested_on": "testicular steriodogenosis", "test": "Inhibitory activity on testicular steroidogenesis in a patient with prostate cancer", "type": "in vivo, human", "settings": "intranasal 500 μg twice a day", "source_text": "The inhibitory activity of [D Ser (Tbu)^6, des Gly NH2^10 ] […] The results are reported in the graphs of sheet 2 of the Figures."}, "[4]": {"settings": "men, intranasal 500 μg, 3rd day following administration"}, "[5]": {"settings": "intranasal 500 μg at 8 A.M. and 5 P.M. of one day in the luteal phase, typical subject of sheet 3"}}, "note": "Entries after “also recorded” stand apart in the source; their conditions may differ."}
{"smiles": "CCNC(=O)[C@@H]1CCCN1C(=O)[C@H](CCCNC(=N)N)NC(=O)[C@H](CC(C)C)NC(=O)[C@@H](COC(C)(C)C)NC(=O)[C@H](Cc1ccc(O)cc1)NC(=O)[C@H](CO)NC(=O)[C@H](Cc1c[nH]c2ccccc12)NC(=O)[C@H](Cc1c[nH]cn1)NC(=O)[C@@H]1CCC(=O)N1", "note": "[[D Ser (Tbu)^6, des Gly NH2^10] LH--RH ethylamide]", "values": [{"measurement": "duration of the drop of seric levels of the steroids (testosterone and its precursors)", "setting": "[1]; human, single intranasal dose of 500 μg", "result": 3, "unit": "days"}, {"measurement": "diminution of the level of testosterone", "setting": "[1]; human, single intranasal dose of 500 μg, 3rd day following administration", "result": 50, "unit": "%"}, {"measurement": "level of testosterone / steroids on the fourth day after administration", "setting": "[1]; human, single intranasal dose of 500 μg, fourth day (until the 6th day)", "result": "returned to normal; also recorded: return to normal levels"}, {"measurement": "concentration of 17-OH-progesterone relative to the initial control values", "setting": "[1]; [4]", "result": 40, "unit": "%"}, {"measurement": "concentration of testosterone relative to the initial control values", "setting": "[1]; [4]", "result": 50, "unit": "%"}, {"measurement": "LH and FSH plasmatic levels", "setting": "[1]; men, intranasal 500 μg, after administration", "result": "increase"}, {"measurement": "seric concentration of pregnenolone, 17-OH-pregnenolone, progesterone, 17-OH-progesterone, Δ5-androstene-3β,17β-diol and testosterone", "setting": "[1]; men, intranasal 500 μg, on the day of treatment", "result": "increased"}, {"measurement": "progesterone level, cycles of post-treatment, % of the control values (pretreatment cycles = 100%)", "setting": "[2]; 12 cycles of post-treatment", "result": 99, "unit": "%"}, {"measurement": "progesterone level, cycles of treatment, % of the control values (pretreatment cycles = 100%)", "setting": "[2]; 12 cycles of treatment", "result": 46, "unit": "%"}, {"measurement": "level of progesterone reduced as compared to the controls", "setting": "[2]; 12 cycles, sheet 5, scale 13 to 127%", "result": 46, "unit": "%"}, {"measurement": "reduction of seric levels of progesterone as compared to the controls, first cycle of treatment", "setting": "[2]; [5]", "result": 13, "unit": "%"}, {"measurement": "reduction of seric levels of progesterone as compared to the controls, second cycle of treatment", "setting": "[2]; [5]", "result": 34, "unit": "%"}, {"measurement": "level of seric progesterone in the 2 cycles of post-treatment", "setting": "[2]; post-treatment cycles", "result": "return to normal"}, {"measurement": "level of androgenic steroids", "setting": "[3]", "result": "diminution"}, {"measurement": "level of testosterone", "setting": "[3]; two weeks of treatment", "result": "stabilized at a very low level"}]}
